The values that follow are results of earlier work, collected in publication PMC9528030 (ACS chemical biology, 2022).

Broadly, the EC50 is the concentration that produces a half-maximal response.

The subject of the data set is SARS-CoV-2. The following applies: read-out: EC50 in a CPE assay; cited from earlier work.

On to `C[C@@H](OC(C)(C)C)[C@H](NC(=O)OCc1ccccc1)C(=O)N[C@@H](CC1CCCCC1)C(=O)N[C@H](C=O)C[C@@H]1CCNC1=O` [MPI8], for which the EC50 is 0.03 µM.
